Broadly, the IC50 is the concentration needed to halve the response being measured. High values mean a need for much substance, low ones inhibition by little substance.

The target in the experiment is T1, bCA-II (Bos taurus, UniProt P00921).
T1 construct: gene CA2
As to the kind of experiment: NPA (4-nitrophenyl acetate) hydrolysis assay with isolated bCA-II after […] nm photodeprotection of PCEM. The class given is biochemical.

T1 sequence (P00921 2-260): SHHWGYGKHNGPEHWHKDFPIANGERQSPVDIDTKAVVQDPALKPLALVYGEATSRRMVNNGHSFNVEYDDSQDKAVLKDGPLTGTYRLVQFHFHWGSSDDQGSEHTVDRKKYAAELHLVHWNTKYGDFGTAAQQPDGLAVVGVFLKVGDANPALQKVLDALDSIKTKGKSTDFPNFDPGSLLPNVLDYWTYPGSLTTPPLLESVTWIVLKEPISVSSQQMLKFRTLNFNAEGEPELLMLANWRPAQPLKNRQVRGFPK

`NS(=O)(=O)c1nc2ccc(OCCC[n+]3ccccc3)cc2s1` [dPCEM]: the half-maximal inhibitory concentration (IC50) was 2900 nM.
